In US8946426B2, “Substituted bicyclic heterocyclic compounds as gamma secretase modulators” (Janssen Pharmaceuticals, Inc., priority 2009, dated 2015):

Legend:
[1] = system: Aβ42; assay: Method 1: Aβ42 sandwich ELISA in supernatant of SKNBE2 cells carrying APP 695-wild type (Tables 7a, 7b); format: cell-based
In short: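 IC50 values were derived with a 4-parameter equation, fitting either percent inhibition or percent of compound-free Aβ42 as the control. The Aβ42 came from supernatants of APP695 wild-type SKNBE2 cells treated for 18 hours. It was measured by ELISA with anti-Aβ42 capture, biotinylated 3D6 and TMB absorbance at 450 nm.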

[2] = system: Aβtotal; assay: Method 1: Aβtotal sandwich ELISA in supernatant of SKNBE2 cells carrying APP 695-wild type (Tables 7a, 7b); format: cell-based
In short: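 SKNBE2 cells expressing wild-type APP695 were exposed to compound for 18 Hours in Ultraculture with 1% glutamine. Aβtotal in the supernatant was read by 6E10-capture/biotinylated 4G8 sandwich ELISA with a fluorogenic peroxidase read-out, and WST-1 checked toxicity. IC50 came from a 4-parameter fit of percent inhibition or percent of control versus concentration.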

[3] = system: Notch-processing activity of the γ-secretase-complex; assay: Notch cell-free assay (NICD production from recombinant Notch substrate N99); format: biochemical; conditions: 1 μM test compound; 0.3-0.5 μM mouse Notch substrate; enriched gamma secretase; 37° C., 6 to 22 h; western blot; control GSI concentration not given
Protocol: The Notch transmembrane domain is cleaved by gamma secretase to release Notch Intracellular C-terminal Domain (NICD).
To monitor the effect of compounds on NICD production, a recombinant Notch substrate (N99) was prepared. The Notch substrate, comprised of mouse Notch fragment (V1711-E1809), an N-terminal methionine and a C-terminal FLAG sequence ([…]), was expressed in E. coli and purified on a column containing an anti-FLAG M2 affinity matrix.
A typical Notch cell-free assay consisted of 0.3-0.5 μM Notch substrate, an enriched preparation of gamma secretase and 1 μM of a test compound (compounds 16, 18 and 106 of the present invention). Controls included a gamma secretase inhibitor (GSI), such as (2S)—N-[2-(3,5-difluorophenyl)acetyl]-L-alanyl-2-phenyl-glycine 1,1-dimethylethyl ester (DAPT) or (2S)-2-hydroxy-3-methyl-N-[(1S)-1-methyl-2-oxo-2-[[(1S)-2,3,4,5-tetrahydro-3-methyl-2-oxo-1H-3-benzazepin-1-yl]amino]ethyl]-butanamide (Semagacestat), and DMSO, the final concentration of DMSO being 1%. Recombinant Notch substrate was pre-treated with 17 μM DTT (1,4-dithiothreitol) and 0.02% SDS (Sodium Dodecyl Sulfate) and heated at 65° C. for 10 min. The mixture of substrate, gamma secretase and compound/DMSO was incubated at 37° C. for 6 to 22 hours (h). Six-hour incubation was sufficient to produce the maximal amount of NICD and the cleaved product remained stable for an additional 16 H. Reaction products were processed for SDS PAGE (Sodium Dodecyl Sulfate-Poly Acrylamide Gel Electrophoresis) and western blotting. Blots were probed with an anti-Flag M2 antibody, followed by LI-COR infrared secondary antibody, and analyzed with the Odyssey Infrared Imaging System (LI-COR® Biosciences).

[4] = Homo sapiens, SKNBE2, Table 7b, averaged IC50, non-linear regression of percentage of control vs log concentration, 4-parameter equation
[5] = Homo sapiens, Table 7a, SKNBE2 cells, compounds 18 h, XLfit 4-parameter fit of percent inhibition, top/bottom fixed to 100/0, hill slope 1
[6] = Table 7b, averaged IC50, non-linear regression of percentage of control vs log concentration, 4-parameter equation

SMILES | IC50 [1, 4] [nM] | IC50 [1, 5] [nM] | melting point [°C] | IC50 [2, 4] [nM] | IC50 [2, 5] [nM] | IC50 [1, 6] [nM] | IC50 [2, 6] [nM] | effect on the Notch-processing activity of the γ-secretase-complex (production of NICD) [3]
Cc1ncoc1-c1ccc(Nc2cccc3c2nc(-c2ccc(F)cc2)n3C)nc1 [Compound 10] | 355 | 358 | 195.4 | – | – | – | – | –
COc1cc(Nc2cccc3c2nc(CCC(F)(F)F)n3C)ccc1-c1ocnc1C [Compound 11] | 71 | 72 | – | – | – | – | – | –
COc1cc(Nc2cccc3c2nc(-c2ccc(F)cc2)n3C)ccc1-c1ocnc1C [Compound 12] | 21 | 23 | – | > 3000 | > 1000 | – | – | –
COc1cc(Nc2cccc3c2nc(-c2ccc(F)cc2)n3C)ccc1-c1cnc(C)o1 [Compound 16] | 9 | 11 | 189 | > 3000 | > 3000 | – | – | did not show an effect

Further lines, with some results ahead:

IC50 [1, 4] [nM] | IC50 [1, 5] [nM] | melting point [°C] | IC50 [2, 4] [nM] | IC50 [2, 5] [nM] | IC50 [1, 6] [nM] | IC50 [2, 6] [nM] | SMILES | effect on the Notch-processing activity of the γ-secretase-complex (production of NICD) [3]
> 10000 | – | – | > 3000 | – | – | – | Cc1ncc(-c2ccc(Nc3nccc4c3nc(-c3ccc(F)cc3)n4C)cc2F)o1 [Compound 17] | –
35 | – | 133.4 | > 3000 | – | – | – | Cc1ncc(-c2ccc(Nc3cccc4c3nc(-c3ccc(F)cc3)n4C(C)C)cn2)o1 [Compound 18] | did not show an effect
– | – | – | – | – | 7 | > 3000 | COc1cccc(-c2nc3c(Nc4ccc(-c5cnc(C)o5)nc4)cc(F)cc3n2C)c1 [Compound 105] | –
– | – | – | – | – | 3550 | – | COc1cc(Nc2nc(C(F)(F)F)cn3cc(C)nc23)ccc1-c1cnc(C)o1 [Compound 170] | –
– | – | – | – | – | 162 | > 10000 | COc1cc(Nc2cncc3c2nc(-c2ccc(F)cc2)n3C)ccc1-c1cnc(C)o1 [Compound 186] | –
– | – | – | – | – | 195 | > 10000 | COc1cc(Nc2cc(C(F)(F)F)nn3cc(C)nc23)ccc1-c1cnc(C)o1 [Compound 195] | –
